Among the data in patent publication US20100062073A1, “PHARMACEUTICAL COMPOSITIONS COMPRISING NANOPARTICLES COMPRISING ENTERIC POLYMERS CASEIN” (priority 2006, published 2010) are solubility values, retold here.

The nature of the data set: Solubility of drug in PBS. The data set is classed as physicochemical. Conditions: phosphate buffered saline (PBS), pH 6.5, aqueous buffer. As for the experimental part:
At a pH of greater than about 5, the enteric polymer is aqueous soluble. By “aqueous soluble” is meant that when the polymer is administered alone at a solids concentration of 0.2 mg/mL to a phosphate buffered saline (PBS) solution consisting of an aqueous solution of 20 mM sodium phosphate (Na2HPO4), 47 mM potassium phosphate (KH2PO4), 87 mM NaCl, and 0.2 mM KCl, adjusted to pH 6.5 with NaOH, the polymer has a solubility of greater than 0.1 mg/mL.
The Tm of Drug 1 is 10° C., and the Tg was determined by DSC analysis to be −16° C.

Usually solubility stands for the concentration that dissolves in the medium under given conditions. Low readings indicate a poorly soluble substance, high ones a readily soluble substance. `CCc1cc(Oc2cccc(N(Cc3cccc(OC(F)(F)C(F)F)c3)C[C@@H](O)C(F)(F)F)c2)ccc1Cl` [Drug 1, (2R)-3-[[3-(4-chloro-3-ethylphenoxy)phenyl][[3-(1,1,2,2-tetrafluoroethoxy)phenyl]methyl]amino]-1,1,1-trifluoro-2-propanol] gave a solubility of under 0.1 µg/mL.
